According to PMC9944328 (Nature Communications, 2023):
Read-outs that look alike come from different tables or passages of the source.

System: SSTR2 mutants
Assay: SSTRs Gi-mediated cAMP inhibition, GloSensor, HEK293, 5 μM forskolin, 15 min room temperature (SSTR2 mutants)
Type: cell-based, human
Description: The levels of the intracellular 3′, 5′-cyclic AMP (cAMP) were measured by the GloSensor cAMP assay (Promega) as described in the previous studies[28],[41] which has been widely used. The human full-length SSTRs and mutants were cloned into the pcDNA3.1+ vector with a HA signal sequence followed by a Flag tag at the N-terminus. HEK293 cells (ATCC, CRL-1573) were seeded into 6-well microplates at a density of 1.0 × 10^6 cells/well and cultured for 24 h at 37 °C with 5% CO2. Cells were then co-transfected with SSTR wild-type or mutants and GloSensor plasmids. After 24 h of transfection, the cells were dissociated with TrypLE™ Express Enzyme (1X) (Thermo Fisher Scientific) and collected by centrifugation at 500 × g for 5 min. Then the collected cells were suspended in Hank’s balanced salt solution [HBSS (Thermo Fisher Scientific)] supplemented with […] (YEASEN), and then the suspension cells were seeded into 96-well plates with 90 μl/well. After incubating at room temperature for 40 min, 5 μM forskolin and ligands diluted in HBSS were added to each well and the plates were incubated at room temperature for 15 min. […] were measured using the Synergy H1 microplate reader (BioTek) and the data presented are means of at least three independent experiments.

[1] = Suppl. Table 4, SSTR2 D295(7.36)F, n=3
[2] = Suppl. Table 4, SSTR2 F294(7.35)Y, n=3
[3] = Suppl. Table 4, SSTR2 I195(45.52)M, n=3
[4] = Suppl. Tables 4/5, SSTR2 V103(2.64)N, n=3
[5] = cAMP inhibition best-fit, F127A-1
[6] = cAMP inhibition best-fit, F127A-2
[7] = cAMP inhibition best-fit, F127A-3
[8] = cAMP inhibition best-fit, I130A-1
[9] = cAMP inhibition best-fit, I130A-2
[10] = cAMP inhibition best-fit, I130A-3
[11] = cAMP inhibition best-fit, Q102A-1
[12] = cAMP inhibition best-fit, Q102A-2
[13] = cAMP inhibition best-fit, Q102A-3
[14] = cAMP inhibition best-fit, V103A-1
[15] = cAMP inhibition best-fit, V103A-2
[16] = cAMP inhibition best-fit, V103A-3

## N#Cc1cccc(-c2ccc3ncc(-c4cc(F)cc(F)c4)c(N4CCC(N)CC4)c3c2)c1O [paltusotine]
P220A-2 (run 2)
  Span (best-fit value): 119.1
  Top (best-fit value): 123.6
P220A-3 (run 3)
  Bottom (best-fit value): 2.569
  LogEC50 (best-fit value): -8.511
  Span (best-fit value): 103.4
  Top (best-fit value): 106
Suppl. Table 4, SSTR2 D295(7.36)F
  Fold of WT: 0.67
[1]
  EC50: 1.39 ± 1.95 nM
  Emax: 75.57±7.43 %WT SSTR2
Suppl. Table 4, SSTR2 F294(7.35)Y
  Fold of WT: 0.48
[2]
  EC50: 0.99 ± 1.3 nM
  Emax: 103.10±3.86 %WT SSTR2
Suppl. Table 4, SSTR2 I195(45.52)M
  Fold of WT: 1.47
[3]
  EC50: 3.05 ± 1.57 nM
  Emax: 89.43±6.05 %WT SSTR2
Suppl. Table 4, SSTR2 Y205(5.35)R
  Fold of WT: 0.16
Suppl. Table 4, SSTR2 Y205(5.35)R, n=3
  EC50: 0.34 nM
Suppl. Tables 4/5, SSTR2 T194(45.51)H
  Fold of WT: 72.45
Suppl. Tables 4/5, SSTR2 T194(45.51)H, n=3
  Emax: 103.80±12.72 %WT SSTR2
Suppl. Tables 4/5, SSTR2 V103(2.64)N
  Fold of WT: 5.75
[4]
  EC50: 12 ± 1.33 nM
  Emax: 99.52±4.73 %WT SSTR2
T194(45.51)H in SSTR2
  Receptor activation of mutant: significantly reduced receptor activation
T194A, run 1, best-fit
  EC50: 54.2 nM
  LogEC50: -7.266
T194A, run 2, best-fit
  EC50: 52.7 nM
  LogEC50: -7.278
T194A, run 3, best-fit
  EC50: 125 nM
  LogEC50: -6.904
T194H, run 1
  Bottom (best-fit): 6.584
  EC50: 123 nM
  LogEC50: -6.909
  Span (best-fit): 95.8
  Top (best-fit): 102.4
T194H, run 2
  Bottom (best-fit): -1.67
  EC50: 151 nM
  LogEC50: -6.822
  Span (best-fit): 105.4
  Top (best-fit): 103.8
T194H, run 3
  Bottom (best-fit): -5.336
  EC50: 125 nM
  LogEC50: -6.902
  Span (best-fit): 128.8
  Top (best-fit): 123.4
V103(2.64)A
  Impact on Gi signaling: less impact on Gi signaling
V103(2.64)N in SSTR2
  Receptor activation of mutant: reduced receptor activation induced by paltusotine
V103N, run 1
  Bottom (best-fit): 8.462
  EC50: 11.7 nM
  LogEC50: -7.932
  Span (best-fit): 90.96
  Top (best-fit): 99.42
V103N, run 2
  Bottom (best-fit): -2.517
  EC50: 36.2 nM
  LogEC50: -7.441
  Span (best-fit): 109.6
  Top (best-fit): 107.1
V103N, run 3
  Bottom (best-fit): -1.625
  EC50: 11.7 nM
  LogEC50: -7.93
  Span (best-fit): 109.5
  Top (best-fit): 107.8
W269A-1 (run 1)
  Bottom (best-fit value): -6.112
  LogEC50 (best-fit value): -9.221
  Span (best-fit value): 105.6
  Top (best-fit value): 99.48
W269A-2 (run 2)
  Bottom (best-fit value): -8.179
  LogEC50 (best-fit value): -9.298
  Span (best-fit value): 111.2
  Top (best-fit value): 103
W269A-3 (run 3)
  Bottom (best-fit value): -4.689
  LogEC50 (best-fit value): -9.219
  Span (best-fit value): 124.8
  Top (best-fit value): 120.1
Y50A, run 1, best-fit
  EC50: 3.61 nM
  LogEC50: -8.443
Y50A, run 2, best-fit
  EC50: 3.74 nM
  LogEC50: -8.427
Y50A, run 3, best-fit
  EC50: 3.4 nM
  LogEC50: -8.469
Y205A-1 (run 1)
  Bottom (best-fit value): 11.16
  LogEC50 (best-fit value): -9.464
  Span (best-fit value): 82.7
  Top (best-fit value): 93.87
Y205A-2 (run 2)
  Bottom (best-fit value): -6.723
  LogEC50 (best-fit value): -9.038
  Span (best-fit value): 105.5
  Top (best-fit value): 98.77
Y205A-3 (run 3)
  Bottom (best-fit value): 0.8743
  LogEC50 (best-fit value): -9.745
  Span (best-fit value): 102.6
  Top (best-fit value): 103.5
Y205R, run 1
  LogEC50: -9.464
  Span (best-fit): 104.7
  Top (best-fit): 106.2
Y205R, run 2
  LogEC50: -9.626
  Span (best-fit): 101.5
  Top (best-fit): 105.3
Y205R, run 3
  LogEC50: -8.061
  Span (best-fit): 97.31
  Top (best-fit): 99.13
Y302A-1 (run 1)
  Bottom (best-fit value), cAMP inhibition: 5.692
  LogEC50 (best-fit value), cAMP inhibition: -7.774
  Span (best-fit value), cAMP inhibition: 45.84
  Top (best-fit value), cAMP inhibition: 51.54
Y302A-2 (run 2)
  Bottom (best-fit value), cAMP inhibition: 6.053
  LogEC50 (best-fit value), cAMP inhibition: -7.903
  Span (best-fit value), cAMP inhibition: 53.55
  Top (best-fit value), cAMP inhibition: 59.6
Y302A-3 (run 3)
  Bottom (best-fit value), cAMP inhibition: 6.125
  LogEC50 (best-fit value), cAMP inhibition: -8.216
  Span (best-fit value), cAMP inhibition: 50.13
  Top (best-fit value), cAMP inhibition: 56.25
[5]
  Bottom: 3.363
  EC50: 0.994 nM
  LogEC50: -9.003
  Span: 99.71
  Top: 103.1
[6]
  Bottom: -15.5
  EC50: 0.816 nM
  LogEC50: -9.089
  Span: 125.3
  Top: 109.8
[7]
  Bottom: 3.745
  EC50: 0.665 nM
  LogEC50: -9.177
  Span: 105.4
  Top: 109.1
[8]
  Bottom: 11.53
  EC50: 17.8 nM
  LogEC50: -7.749
  Span: 105
  Top: 116.5
[9]
  Bottom: 16.26
  EC50: 15.1 nM
  LogEC50: -7.822
  Span: 108.4
  Top: 124.7
[10]
  Bottom: 6.76
  EC50: 23.9 nM
  LogEC50: -7.621
  Span: 101.4
  Top: 108.2
[11]
  EC50: 43.6 nM
  LogEC50: -7.36
  Span: 102.2
  Top: 104
[12]
  EC50: 28.2 nM
  LogEC50: -7.55
  Span: 100.8
  Top: 101.3
[13]
  EC50: 21.3 nM
  LogEC50: -7.671
  Span: 85.31
  Top: 86.48
[14]
  Bottom: 9.955
  EC50: 90.2 nM
  LogEC50: -7.045
  Span: 84.48
  Top: 94.43
[15]
  Bottom: -12.27
  EC50: 7.12 nM
  LogEC50: -8.147
  Span: 105.2
  Top: 92.96
[16]
  Bottom: 15.94
  EC50: 1.5 nM
  LogEC50: -8.823
  Span: 58.67
  Top: 74.61
read-out: EC50 (best-fit value), cAMP inhibition, D295A-1 (run 1)
  EC50: 16 nM
read-out: EC50 (best-fit value), cAMP inhibition, D295A-2 (run 2)
  EC50: 15.9 nM
read-out: EC50 (best-fit value), cAMP inhibition, D295A-3 (run 3)
  EC50: 18.1 nM
read-out: EC50 (best-fit value), cAMP inhibition, F272A-1 (run 1)
  EC50: 17.7 nM
read-out: EC50 (best-fit value), cAMP inhibition, F272A-2 (run 2)
  EC50: 26.7 nM
read-out: EC50 (best-fit value), cAMP inhibition, F272A-3 (run 3)
  EC50: 145 nM
read-out: EC50 (best-fit value), cAMP inhibition, F294A-1 (run 1)
  EC50: 3.57 nM
read-out: EC50 (best-fit value), cAMP inhibition, F294A-2 (run 2)
  EC50: 4.21 nM
read-out: EC50 (best-fit value), cAMP inhibition, F294A-3 (run 3)
  EC50: 0.15 nM
read-out: EC50 (best-fit value), cAMP inhibition, K291A-1 (run 1)
  EC50: 4.34 nM
read-out: EC50 (best-fit value), cAMP inhibition, K291A-2 (run 2)
  EC50: 1.48 nM
read-out: EC50 (best-fit value), cAMP inhibition, K291A-3 (run 3)
  EC50: 6.95 nM
read-out: EC50 (best-fit value), cAMP inhibition, N276A-1 (run 1)
  EC50: 0.993 nM
read-out: EC50 (best-fit value), cAMP inhibition, N276A-2 (run 2)
  EC50: 2.19 nM
read-out: EC50 (best-fit value), cAMP inhibition, N276A-3 (run 3)
  EC50: 1.77 nM
read-out: EC50 (best-fit value), cAMP inhibition, Y302A-1 (run 1)
  EC50: 16.8 nM
read-out: EC50 (best-fit value), cAMP inhibition, Y302A-2 (run 2)
  EC50: 12.5 nM
read-out: EC50 (best-fit value), cAMP inhibition, Y302A-3 (run 3)
  EC50: 6.08 nM
read-out: EC50 (best-fit value), F208A-1 (run 1)
  EC50: 14.9 nM
read-out: EC50 (best-fit value), F208A-2 (run 2)
  EC50: 98.5 nM
read-out: EC50 (best-fit value), F208A-3 (run 3)
  EC50: 79.3 nM
read-out: EC50 (best-fit value), F265A-1 (run 1)
  EC50: 11.3 nM
read-out: EC50 (best-fit value), F265A-2 (run 2)
  EC50: 14.7 nM
read-out: EC50 (best-fit value), F265A-3 (run 3)
  EC50: 9.82 nM
read-out: EC50 (best-fit value), P220A-1 (run 1)
  EC50: 3.5 nM
read-out: EC50 (best-fit value), P220A-2 (run 2)
  EC50: 3.09 nM
read-out: EC50 (best-fit value), P220A-3 (run 3)
  EC50: 3.08 nM
read-out: EC50 (best-fit value), W269A-1 (run 1)
  EC50: 0.601 nM
read-out: EC50 (best-fit value), W269A-2 (run 2)
  EC50: 0.503 nM
read-out: EC50 (best-fit value), W269A-3 (run 3)
  EC50: 0.604 nM
read-out: EC50 (best-fit value), Y205A-1 (run 1)
  EC50: 0.344 nM
read-out: EC50 (best-fit value), Y205A-2 (run 2)
  EC50: 0.915 nM
read-out: EC50 (best-fit value), Y205A-3 (run 3)
  EC50: 0.18 nM
